From PMC5834611, “A mechanism for CO regulation of ion channels” (Nature Communications, 2018)

Key:
[1] = target: T1, SUR2A (Rattus norvegicus, UniProt Q63563); assay: spectrophotometric titration; stopped-flow, resonance Raman, ultrafast spectroscopy; assay type: binding
T1 construct: gene Abcc9; residues S615-L933 (SUR2A^615–933; CXXHX16H motif and NBD1)
T1 sequence (Q63563 615-933): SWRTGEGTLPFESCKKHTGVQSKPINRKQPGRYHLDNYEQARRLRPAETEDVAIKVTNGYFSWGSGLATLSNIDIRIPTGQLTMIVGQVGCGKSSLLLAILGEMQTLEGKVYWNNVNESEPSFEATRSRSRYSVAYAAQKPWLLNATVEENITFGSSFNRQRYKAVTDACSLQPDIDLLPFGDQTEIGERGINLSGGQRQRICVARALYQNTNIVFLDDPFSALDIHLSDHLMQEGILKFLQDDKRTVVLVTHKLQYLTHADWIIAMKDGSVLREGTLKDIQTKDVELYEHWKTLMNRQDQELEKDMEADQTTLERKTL

[2] = target: T1, SUR2A; assay: UV-vis absorption titration of purified protein; koff by heme transfer to apo-myoglobin; assay type: binding

| Structure (SMILES) | Kd [1] | Kd [2] |
| --- | --- | --- |
| [C-]#[O+] [carbon monoxide] | 0.6 ± 0.3 µM |  |
| C=CC1=C(C)C2=Cc3c(C=C)c(C)c4[n]3[Fe]([Cl])[n]3c(c(C)c(CCC(=O)O)c3=CC3=NC(=C4)C(C)=C3CCC(=O)O)=CC1=N2 [hemin] |  | 8 ± 0.6 µM |
